This assay addresses T1, Mos1 transposase (Drosophila mauritiana, UniProt Q7JQ07, T216A).
T1 construct: gene mariner\T; Mos1 transposase catalytic domain (crystal); Mos1 transposase and paired-end complex (thermal denaturation and activity assays)
The assay can be described thus: X-ray co-crystal structures at […] Å (soak); thermal denaturation shift; strand transfer assay IC50 […]; plasmid cleavage assay IC50 […]. Type of assay: biochemical.

A word on the IC50: it is the point on the concentration scale where inhibition reaches its midpoint.

T1 sequence (Q7JQ07 whole entry T216A, the tested form may be a part): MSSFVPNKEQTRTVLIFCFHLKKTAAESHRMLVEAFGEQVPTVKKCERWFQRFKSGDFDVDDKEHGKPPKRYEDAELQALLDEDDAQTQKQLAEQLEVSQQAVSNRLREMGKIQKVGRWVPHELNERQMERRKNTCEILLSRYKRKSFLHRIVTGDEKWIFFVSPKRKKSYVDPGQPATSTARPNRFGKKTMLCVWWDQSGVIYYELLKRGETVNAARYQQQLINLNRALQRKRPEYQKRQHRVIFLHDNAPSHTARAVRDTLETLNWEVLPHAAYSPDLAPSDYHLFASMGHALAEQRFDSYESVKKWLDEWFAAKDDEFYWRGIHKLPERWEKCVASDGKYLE

Take `Cc1nnc(C(=O)NC(C)(C)c2nc(C(=O)NCc3ccc(F)cc3)c(O)c(=O)n2C)o1` [Raltegravir]: the IC50 was roughly 2000 nM.

For the origin of these results see article PMC3977574, “Structural Basis of Mos1 Transposase Inhibition by the Anti-retroviral Drug Raltegravir” (ACS Chemical Biology, 2014).
